Values joined by “and” are separate entries in the source; they are usually repeats but may differ in a detail not shown here. Equal values may be shown once.
How the values were obtained:
Assay type in all cases: functional
Staphylococcus aureus [1] = assay: Antibacterial activity against Staphylococcus aureus was measured as area of inhibition zone at 0.1 mg/mL concentration; conditions: for zone of inhibition at 100 µg/mL: Staphylococcus aureus
Thanatephorus cucumeris [2] = assay: Antifungal activity against Rhizoctonia solani was measured as mycelial growth at 0.5 mg/mL concentration
Thanatephorus cucumeris [3] = assay: Antifungal activity against Rhizoctonia solani was determined at 0.5 mg/mL concentration
Thanatephorus cucumeris [4] = assay: Antifungal activity against Rhizoctonia solani was measured as mycelial growth at 0.1 mg/mL concentration
Thanatephorus cucumeris [5] = assay: Antifungal activity against Rhizoctonia solani was determined at 0.1 mg/mL concentration
[6] = Antifungal activity against Bipolaris oryzae was measured as mycelial growth at 0.1 mg/mL concentration
Alternaria alternata [7] = assay: Antifungal activity against Alternaria alternata was measured as mycelial growth at 0.5 mg/mL concentration
Enterococcus faecalis [8] = assay: Antibacterial activity against […] was determined at 0.1 mg/mL concentration
Fusarium oxysporum [9] = assay: Antifungal activity against Fusarium oxysporum was determined at 0.1 mg/mL concentration
Enterococcus faecalis [10] = assay: Antibacterial activity against […] was determined at 0.5 mg/mL concentration
Fusarium oxysporum [11] = assay: Antifungal activity against Fusarium oxysporum was measured as mycelial growth at 0.1 mg/mL concentration
Pseudomonas aeruginosa [12] = assay: Antibacterial activity against Pseudomonas aeruginosa was measured as area of inhibition zone at 0.1 mg/mL concentration; conditions: for zone of inhibition at 100 µg/mL: Pseudomonas aeruginosa
Curvularia lunata [13] = assay: Antifungal activity against Curvularia lunata was determined at 0.1 mg/mL concentration
Alternaria alternata [14] = assay: Antifungal activity against Alternaria alternata was determined at 0.5 mg/mL concentration
Staphylococcus aureus [15] = assay: Antibacterial activity against Staphylococcus aureus was determined at 0.1 mg/mL concentration
Pseudomonas aeruginosa [16] = assay: Antibacterial activity against Pseudomonas aeruginosa was determined at 0.1 mg/mL concentration
Escherichia coli [17] = assay: Antibacterial activity against Escherichia coli was determined at 0.1 mg/mL concentration
Curvularia lunata [18] = assay: Antifungal activity against Curvularia lunata was determined at 0.5 mg/mL concentration
Alternaria alternata [19] = assay: Antifungal activity against Alternaria alternata was determined at 0.1 mg/mL concentration
[20] = Antifungal activity against Bipolaris oryzae was determined at 0.1 mg/mL concentration
Pseudomonas aeruginosa [21] = assay: Antibacterial activity against Pseudomonas aeruginosa was determined at 0.5 mg/mL concentration
Escherichia coli [22] = assay: Antibacterial activity against Escherichia coli was determined at 0.5 mg/mL concentration
Staphylococcus aureus [23] = assay: Antibacterial activity against Staphylococcus aureus was determined at 0.5 mg/mL concentration
[24] = Antifungal activity against Bipolaris oryzae was determined at 0.5 mg/mL concentration
Curvularia lunata [25] = assay: Antifungal activity against Curvularia lunata was measured as mycelial growth at 0.5 mg/mL concentration
Fusarium oxysporum [26] = assay: Antifungal activity against Fusarium oxysporum was determined at 0.5 mg/mL concentration
Alternaria alternata [27] = assay: Antifungal activity against Alternaria alternata was measured as mycelial growth at 0.1 mg/mL concentration
[28] = Antifungal activity against Bipolaris oryzae was measured as mycelial growth at 0.5 mg/mL concentration
Curvularia lunata [29] = assay: Antifungal activity against Curvularia lunata was measured as mycelial growth at 0.1 mg/mL concentration
Fusarium oxysporum [30] = assay: Antifungal activity against Fusarium oxysporum was measured as mycelial growth at 0.5 mg/mL concentration
Enterococcus faecalis [31] = assay: Antibacterial activity against […] was measured as area of inhibition zone at 0.1 mg/mL concentration
[32] = Antibacterial activity against Escherichia coli was measured as area of inhibition zone at 0.1 mg/mL concentration; conditions: for zone of inhibition at 100 µg/mL: Escherichia coli

Structure (SMILES)	Inhibition Zone (Staphylococcus aureus [1])	Mycelial growth (Thanatephorus cucumeris [2]) [cm]	inhibition at 500 µg/mL (Thanatephorus cucumeris [3]) [%]	Mycelial growth (Thanatephorus cucumeris [4]) [cm]	inhibition at 100 µg/mL (Thanatephorus cucumeris [5]) [%]	Mycelial growth [6] [cm]	Mycelial growth (Alternaria alternata [7]) [cm]	inhibition at 100 µg/mL (Enterococcus faecalis [8]) [%]	inhibition at 100 µg/mL (Fusarium oxysporum [9]) [%]	inhibition at 500 µg/mL (Enterococcus faecalis [10]) [%]	Mycelial growth (Fusarium oxysporum [11]) [cm]	inhibition at 100 µg/mL (Curvularia lunata [13]) [%]	inhibition at 500 µg/mL (Alternaria alternata [14]) [%]	inhibition at 100 µg/mL (Staphylococcus aureus [15]) [%]	inhibition at 100 µg/mL (Pseudomonas aeruginosa [16]) [%]	inhibition at 100 µg/mL (Escherichia coli [17]) [%]	inhibition at 500 µg/mL (Curvularia lunata [18]) [%]	inhibition at 100 µg/mL (Alternaria alternata [19]) [%]	inhibition at 100 µg/mL [20] [%]	inhibition at 500 µg/mL (Pseudomonas aeruginosa [21]) [%]	also measured
CCOC(=O)c1cn(-c2ccc([N+](=O)[O-])cc2[N+](=O)[O-])nc1-c1ccccc1F	7.3 cm	8.2	8.9	9	0	5.7	3.4	0	33.3	25.6	6	44.4	62.2	46.7	0	20	55.6	53.3	36.7	0	zone of inhibition at 100 µg/mL (Staphylococcus aureus [1]): 42 mm; zone of inhibition at 100 µg/mL (Pseudomonas aeruginosa [12]): 0 mm; inhibition at 500 µg/mL (Escherichia coli [22]): 56.7%; inhibition at 500 µg/mL (Staphylococcus aureus [23]): 81.1%; inhibition at 500 µg/mL [24]: 52.2%; Mycelial growth (Curvularia lunata [25]): 4 cm; inhibition at 500 µg/mL (Fusarium oxysporum [26]): 41.1%; Mycelial growth (Alternaria alternata [27]): 4.2 cm; Mycelial growth [28]: 4.3 cm; Mycelial growth (Curvularia lunata [29]): 5 cm; Mycelial growth (Fusarium oxysporum [30]): 5.3 cm; zone of inhibition at 100 µg/mL (Enterococcus faecalis [31]): 23 mm
CCOC(=O)c1cn(-c2ccc([N+](=O)[O-])cc2[N+](=O)[O-])nc1C	5.3 cm	8	11.1	9	0	6	4.8	55.6	30	84.4	6.3	27.8	46.7	58.9	0	51.1	41.1	38.9	33.3	0	zone of inhibition at 100 µg/mL (Staphylococcus aureus [1]): 82 mm; Inhibition Zone [32]: 7.8 cm and 4.6 cm; zone of inhibition at 100 µg/mL [32]: 50 mm; zone of inhibition at 100 µg/mL (Pseudomonas aeruginosa [12]): 0 mm; inhibition at 500 µg/mL (Escherichia coli [22]): 86.7%; inhibition at 500 µg/mL (Staphylococcus aureus [23]): 91.1%; inhibition at 500 µg/mL [24]: 5%; Mycelial growth (Curvularia lunata [25]): 5.3 cm; inhibition at 500 µg/mL (Fusarium oxysporum [26]): 40%; Mycelial growth (Alternaria alternata [27]): 5.5 cm; Mycelial growth [28]: 4.5 cm; Mycelial growth (Curvularia lunata [29]): 6.5 cm; Mycelial growth (Fusarium oxysporum [30]): 5.4 cm; zone of inhibition at 100 µg/mL (Enterococcus faecalis [31]): 76 mm
Cc1nn(-c2ccc([N+](=O)[O-])cc2[N+](=O)[O-])cc1C(=O)OCc1ccccc1	4.1 cm	6.5	27.8	7.9	12.2	6	4.2	56.7	30	81.1	6.3	28.9	53.3	45.6	18.9	17.8	41.1	42.2	33.3	22.2	zone of inhibition at 100 µg/mL (Staphylococcus aureus [1]): 71 mm; Inhibition Zone (Pseudomonas aeruginosa [12]): 2 cm; zone of inhibition at 100 µg/mL (Pseudomonas aeruginosa [12]): 17 mm; inhibition at 500 µg/mL (Escherichia coli [22]): 54.4%; inhibition at 500 µg/mL (Staphylococcus aureus [23]): 78.9%; inhibition at 500 µg/mL [24]: 46.7%; Mycelial growth (Curvularia lunata [25]): 5.3 cm; inhibition at 500 µg/mL (Fusarium oxysporum [26]): 52.2%; Mycelial growth (Alternaria alternata [27]): 5.2 cm; Mycelial growth [28]: 4.8 cm; Mycelial growth (Curvularia lunata [29]): 6.4 cm; Mycelial growth (Fusarium oxysporum [30]): 4.3 cm; zone of inhibition at 100 µg/mL (Enterococcus faecalis [31]): 73 mm
Cc1nn(-c2ccc([N+](=O)[O-])cc2[N+](=O)[O-])cc1C(=O)OC(C)(C)C	7.3 cm	8.5	5.6	9	0	5.5	5.1	21.1	13.3	53.3	7.8	25.6	43.3	81.1	0	16.7	40	31.1	38.9	0	zone of inhibition at 100 µg/mL (Staphylococcus aureus [1]): 84 mm; zone of inhibition at 100 µg/mL (Pseudomonas aeruginosa [12]): 0 mm; inhibition at 500 µg/mL (Escherichia coli [22]): 52.2%; inhibition at 500 µg/mL (Staphylococcus aureus [23]): 93.3%; inhibition at 500 µg/mL [24]: 52.2%; Mycelial growth (Curvularia lunata [25]): 5.4 cm; inhibition at 500 µg/mL (Fusarium oxysporum [26]): 36.7%; Mycelial growth (Alternaria alternata [27]): 6.2 cm; Mycelial growth [28]: 4.3 cm; Mycelial growth (Curvularia lunata [29]): 6.7 cm; Mycelial growth (Fusarium oxysporum [30]): 5.7 cm; zone of inhibition at 100 µg/mL (Enterococcus faecalis [31]): 48 mm
CCOC(=O)c1cn(-c2ccc([N+](=O)[O-])cc2[N+](=O)[O-])nc1CCl	8.3 cm	8.5	5.6	9	0	5.9	4.8	0	24.4	0	6.8	33.3	46.7	76.6	0	17.8	43.3	33.3	34.4	0	zone of inhibition at 100 µg/mL (Staphylococcus aureus [1]): 69 mm; zone of inhibition at 100 µg/mL (Pseudomonas aeruginosa [12]): 0 mm; inhibition at 500 µg/mL (Escherichia coli [22]): 51.1%; inhibition at 500 µg/mL (Staphylococcus aureus [23]): 92.2%; inhibition at 500 µg/mL [24]: 48.9%; Mycelial growth (Curvularia lunata [25]): 5.1 cm; inhibition at 500 µg/mL (Fusarium oxysporum [26]): 48.9%; Mycelial growth (Alternaria alternata [27]): 6 cm; Mycelial growth [28]: 4.6 cm; Mycelial growth (Curvularia lunata [29]): 6 cm; Mycelial growth (Fusarium oxysporum [30]): 4.6 cm; zone of inhibition at 100 µg/mL (Enterococcus faecalis [31]): 0 mm
CCOC(=O)c1cn(-c2ccc([N+](=O)[O-])cc2[N+](=O)[O-])nc1-c1ccc(Cl)cc1	3.3 cm and 1.6 cm	7.2	20	9	0	6.6	4.2	0	30	54.4	6.3	35.6	53.3	17.8	0	0	46.7	40	26.7	0	zone of inhibition at 100 µg/mL (Pseudomonas aeruginosa [12]): 0 mm; inhibition at 500 µg/mL (Escherichia coli [22]): 52.2%; inhibition at 500 µg/mL (Staphylococcus aureus [23]): 36.7%; inhibition at 500 µg/mL [24]: 56.7%; Mycelial growth (Curvularia lunata [25]): 4.8 cm; inhibition at 500 µg/mL (Fusarium oxysporum [26]): 55.6%; Mycelial growth (Alternaria alternata [27]): 5.4 cm; Mycelial growth [28]: 3.9 cm; Mycelial growth (Curvularia lunata [29]): 5.8 cm; Mycelial growth (Fusarium oxysporum [30]): 4 cm; zone of inhibition at 100 µg/mL (Enterococcus faecalis [31]): 49 mm
CCOC(=O)c1nn(-c2ccc([N+](=O)[O-])cc2[N+](=O)[O-])cc1C=O	7.7 cm	4.2	53.3	6.8	24.4	3.5	2.1	83.3	52.2	95.6	4.3	37.8	76.6	85.6	0	81.1	61.1	57.8	61.1	25.6	zone of inhibition at 100 µg/mL (Staphylococcus aureus [1]): 88 mm; Inhibition Zone [32]: 7.5 cm and 8.8 cm; zone of inhibition at 100 µg/mL [32]: 73 mm; inhibition at 500 µg/mL (Escherichia coli [22]): 97.8%; inhibition at 500 µg/mL (Staphylococcus aureus [23]): 97.8%; inhibition at 500 µg/mL [24]: 74.4%; Mycelial growth (Curvularia lunata [25]): 3.5 cm; inhibition at 500 µg/mL (Fusarium oxysporum [26]): 71.1%; Mycelial growth (Alternaria alternata [27]): 3.8 cm; Mycelial growth [28]: 2.3 cm; Mycelial growth (Curvularia lunata [29]): 5.6 cm; Mycelial growth (Fusarium oxysporum [30]): 2.6 cm; zone of inhibition at 100 µg/mL (Enterococcus faecalis [31]): 86 mm

Reference: ChEMBL document CHEMBL1137069, “Design, synthesis and anti-microbial activity of 1H-pyrazole carboxylates” (2004)
